Results as given in patent US20150073159A1, “Solid State Forms Of Cabazitaxel And Processes For Preparation Thereof” (PLUS CHEMICALS SA, priority 2011, published 2015).

What was measured:
[1] = Hygroscopicity and stability test (exposure to controlled relative humidity; water content by Karl-Fischer, form by PXRD); format: physicochemical; conditions: for % water content: Karl-Fischer coulometric titration; for Conversion to other forms of Cabazitaxel (in words) / Hygroscopicity (in words): normal atmospheric humidity, 60%, 80% and 100% RH
Protocol: (§1) Powder X-ray Diffraction was performed on an X-Ray powder diffractometer: PanAlytical X'pert Pro; CuKα radiation (λ=1.5418 Å); X'Celerator detector with active length 2.122 degrees 2-theta; laboratory temperature 22-25° C.; zero background sample holders. Prior to analysis, the samples were gently ground using a mortar and pestle to obtain a fine powder. The ground sample was adjusted into a cavity of the sample holder and the surface of the sample was smoothed using a cover glass.
A silicon powder internal standard was used to calibrate the peak positions and to eliminate an effect of the sample preparation. […] The internal standard powder can be mixed with a sample The PXRD diffractogram is then acquired and the current position of the aforementioned internal standard diffraction peak is determined. The difference between the current position of the diffraction and its nominal value of 28.44 degrees 2-theta is calculated. The current positions of all relevant sample peaks are then corrected using the above difference to obtain the true positions of the sample diffractions. The confidence interval for the peak positions was determined to be ±0.1 degrees 2-theta.
Scan range: 3-40 degrees 2-theta; Scan mode: continuous; Step size: 0.0167 degrees; Time per step: 42 s; Sample spin: 16 rpm; Sample holder: zero background silicon plate.
About 100 mg of a sample was placed to a cell with controlled relative humidity. The samples were exposed to 60%, 80% and 100% relative humidity, at a temperature of about room temperature, for a period of about two days. XRPD analysis and water content by Karl-Fischer coulometric titration were carried out before and after the exposure to the defined relative humidity.
Water was determined by KF Oven method (832 KF Thermoprep connected to 831 KF Coulometer). Water from the sample (50 mg of cabazitaxel) was released by nitrogen stream at 130° C. Extraction time was 10 minutes.

[2] = Polymorphic stability on storage (conversion measured by PXRD); format: physicochemical
Protocol: As used herein, and unless indicated otherwise, the term “polymorphic stability” in relation to the crystalline forms of Cabazitaxel means that there is less than 20%, 10%, 5%, 1%, 0.5% or 0.1% conversion of crystalline Cabazitaxel to any other solid state form of Cabazitaxel under the specified conditions, as measured by PXRD. In some embodiments, the conversion is 0.5%-20%, 0.5%-10% or 0.5%-5% or 0.5%-1% or 0.1%-1%, or 0.1%-0.5%.
as §1

[3] = 60% RH, about room temperature, about two days
[4] = 80% RH, about room temperature, about two days
[5] = 100% RH, about room temperature, about two days

SMILES	Form (crystalline structure determined by PXRD) [1, 3]	% water content [1, 3]	Form (crystalline structure determined by PXRD) [1, 4]	% water content [1, 4]	Form (crystalline structure determined by PXRD) [1, 5]	% water content [1, 5]	Form (crystalline structure determined by PXRD) ([1]; Atmospheric RH)	% water content ([1]; Atmospheric RH)	Conversion to other forms of Cabazitaxel (in words) ([1]; about room temperature)	Hygroscopicity (in words) ([1]; about room temperature)	Period of polymorphic stability ([2]; about 25° C. and 60% relative humidity)	Period of polymorphic stability ([2]; about 40° C. and 75% RH)
CO[C@H]1C(=O)[C@]2(C)[C@@H](OC)C[C@H]3OC[C@@]3(OC(C)=O)[C@H]2[C@H](OC(=O)c2ccccc2)[C@]2(O)C[C@H](OC(=O)[C@H](O)[C@@H](NC(=O)OC(C)(C)C)c3ccccc3)C(C)=C1C2(C)C [Form II, Cabazitaxel]	Form II	0.07%	Form II	0.09%	Form II	0.11%	Form II	0.02%	does not convert to any other forms of Cabazitaxel	low-hygroscopicity form		
CO[C@H]1C(=O)[C@]2(C)[C@@H](OC)C[C@H]3OC[C@@]3(OC(C)=O)[C@H]2[C@H](OC(=O)c2ccccc2)[C@]2(O)C[C@H](OC(=O)[C@H](O)[C@@H](NC(=O)OC(C)(C)C)c3ccccc3)C(C)=C1C2(C)C [Form III, Cabazitaxel]	Form III	0.14%	Form III	0.23%	Form III	0.19%	Form III	0.05%	does not convert to any other solid state forms of Cabazitaxel	low-hygroscopicity form	at least 6 months	at least 6 months
CO[C@H]1C(=O)[C@]2(C)[C@@H](OC)C[C@H]3OC[C@@]3(OC(C)=O)[C@H]2[C@H](OC(=O)c2ccccc2)[C@]2(O)C[C@H](OC(=O)[C@H](O)[C@@H](NC(=O)OC(C)(C)C)c3ccccc3)C(C)=C1C2(C)C [Form V, Cabazitaxel]	Form V	0.21%	Form V	0.30%	Form V	0.68%	Form V	0.08%	does not convert to any other forms of Cabazitaxel	low—hygroscopicity form		
CO[C@H]1C(=O)[C@]2(C)[C@@H](OC)C[C@H]3OC[C@@]3(OC(C)=O)[C@H]2[C@H](OC(=O)c2ccccc2)[C@]2(O)C[C@H](OC(=O)[C@H](O)[C@@H](NC(=O)OC(C)(C)C)c3ccccc3)C(C)=C1C2(C)C [Form IV, Cabazitaxel]	Form IV	0.07%	Form IV	0.09%	Form IV	0.09%	Form IV	0.01%	does not convert to any other forms of Cabazitaxel	low-hygroscopicity form		
CO[C@H]1C(=O)[C@]2(C)[C@@H](OC)C[C@H]3OC[C@@]3(OC(C)=O)[C@H]2[C@H](OC(=O)c2ccccc2)[C@]2(O)C[C@H](OC(=O)[C@H](O)[C@@H](NC(=O)OC(C)(C)C)c3ccccc3)C(C)=C1C2(C)C [Form I, Cabazitaxel]	Form I	0.13%	Form I	0.14%	Form I	0.14%	Form I	0.05%	does not convert to any other forms of Cabazitaxel	low-hygroscopicity form		
